Reference: US10864197B2, “Biphenyl sulfonamide compounds for the treatment of kidney diseases or disorders” (Retrophin, Inc., priority 2016, dated 2020)

What was measured:
[1] = DUET trial: eGFR and serum markers; assay type: in vivo, human; conditions: double-blind period
Excerpt: (§1) DUET trial is a phase 2, double-blind, randomized, active-control, dose-escalation study (NCT01613118) that evaluates the efficacy and safety of sparsentan as a treatment for primary focal segmental glomerulosclerosis (FSGS), a rare disorder characterized by massive proteinuria and progressive loss of kidney function. Patients (ranging in age from 8 years to 75 years) with biopsy-proven primary FSGS (or documentation of a genetic mutation in a podocyte protein associated with the disease) having baseline urine protein to creatinine (“UP/C”) ratios greater than 1 g/g and estimated glomerular filtration rates greater than 30 ml/min were eligible for the study. The inclusion criteria also included a mean seated blood pressure >[…] and <145/96 mmHg for patients aged 18 years or older, or, for patients aged <18 years of age, a mean seated blood pressure of >90/60 mmHg and <95th percentile for age, gender, and height. The inclusion criteria included an allowance for a stable dose of immunosuppressive medication for ≥1 month. Exclusion criteria included secondary FSGS; significant medical conditions related to cardiac, hepatic, or immune function; body mass index >[…] for adults or in the 99th percentile plus 5 for pediatric patients; hematocrit <27% or hemoglobin <[…]; serum potassium >5.5 mEq/L; and women who were pregnant, breastfeeding, or of child-bearing potential who were unwilling to use two methods of contraception.
(§2) Patients who signed consent and met all inclusion and exclusion criteria during the screening phase underwent a 2-week angiotensin receptor blocker (ARB) and angiotensin converting enzyme (ACE) inhibitor washout period before being randomly assigned to one of the three escalating dose cohorts receiving sparsentan (200 mg/day; 400 mg/day; and 800 mg/day) or a fixed maximal dose of active control (the ARB irbesartan, at 300 mg/day) in a 3:1 ratio within each cohort. The primary endpoint was the change in UP/C ratio (determined as a measure of urinary protein excretion) from baseline. The proportion of patients achieving UP/C ratio ≤1.5 g/g with >40% reduction in UP/C ratio at Week 8, a modified responder analysis, was evaluated as secondary endpoint.

[2] = DUET trial: treatment emergent adverse events and edema severity; assay type: in vivo, human; conditions: for Patients with Edema, Severity Grade 0 / Patients with Edema, Severity Grade 1+ to 2+ / Patients with Edema, Severity Grade 3+ to 4+ / Percent of patients having treatment emergent adverse effects: Any / Percent of patients having treatment emergent adverse effects: Drug-related / Percent of patients having treatment emergent adverse effects: Leading to dose change or interruption / Percent of patients having treatment emergent adverse effects: Leading to drug discontinuation / Percent of patients having treatment emergent adverse effects: Leading to study withdrawal / Percent of patients having treatment emergent adverse effects: Serious / Percent of patients with Cough / Percent of patients with Diarrhea / Percent of patients with Dizziness / Percent of patients with Edema/edema peripheral / Percent of patients with Fatigue / Percent of patients with Headache / Percent of patients with Hypotension/orthostatic hypotension / Percent of patients with Muscle spasms / Percent of patients with Nasal congestion / Percent of patients with Nausea / Percent of patients with Upper abdominal pain / Percent of patients with Upper respiratory tract infection / Percent of patients with Vomiting: human, in vivo; for Percent of patients having treatment emergent adverse effects: Death: irbesartan n=36, sparsentan all doses n=73
Excerpt: as §1, §2
The incidences of specific treatment emergent adverse events for which the incidence was greater than 5% across all patients are shown in Table 7. Symptoms such as headache, dizziness, and edema may be associated with hypotension and some of those symptoms were more frequent in patients treated with sparsentan relative to those patients treated with irbesartan. However, there was no significant different between irbesartan-treated patients and sparsentan-treated patients in the worsening of existing edema (Table 8).

| SMILES | change in N-terminal pro-B-type natriuretic peptide [1] | change in albumin [1] | change in eGFR [1] | change in serum potassium [1] | Patients with Edema, Severity Grade 0 [2] | Patients with Edema, Severity Grade 1+ to 2+ [2] | Patients with Edema, Severity Grade 3+ to 4+ [2] | Patients with Edema, Severity Grade 0 ([2]; 8 weeks) | Patients with Edema, Severity Grade 1+ to 2+ ([2]; 8 weeks) | Patients with Edema, Severity Grade 3+ to 4+ ([2]; 8 weeks) | Percent of patients having treatment emergent adverse effects: Any ([2]; 8 weeks) | Percent of patients having treatment emergent adverse effects: Drug-related ([2]; 8 weeks) | Percent of patients having treatment emergent adverse effects: Leading to dose change or interruption ([2]; 8 weeks) | Percent of patients having treatment emergent adverse effects: Leading to drug discontinuation ([2]; 8 weeks) | Percent of patients having treatment emergent adverse effects: Leading to study withdrawal ([2]; 8 weeks) | Percent of patients having treatment emergent adverse effects: Serious ([2]; 8 weeks) | Percent of patients with Cough ([2]; 8 weeks) | Percent of patients with Diarrhea ([2]; 8 weeks) | Percent of patients with Dizziness ([2]; 8 weeks) | Percent of patients with Edema/edema peripheral ([2]; 8 weeks) | other results |
| --- | --- | --- | --- | --- | --- | --- | --- | --- | --- | --- | --- | --- | --- | --- | --- | --- | --- | --- | --- | --- | --- |
| CCCCC1=NC2(CCCC2)C(=O)N1Cc1ccc(-c2ccccc2-c2nnn[nH]2)cc1 [Irbesartan, irbesartan, reference compound] | no significant change or difference | no significant change or difference | no significant change or difference | no significant change or difference | 76% | 21% | 3% | 86% | 14% | 0% | 72.2% | 36.1% | 8.3% | 2.8% | 2.8% | 2.8% | 5.6% | 2.8% | 11.1% | 2.8% | Percent of patients with Fatigue ([2]; 8 weeks): 11.1%; Percent of patients with Headache ([2]; 8 weeks): 19.4%; Percent of patients with Hypotension/orthostatic hypotension ([2]; 8 weeks): 8.3%; Percent of patients with Muscle spasms ([2]; 8 weeks): 5.6%; Percent of patients with Nasal congestion ([2]; 8 weeks): 11.1%; Percent of patients with Nausea ([2]; 8 weeks): 8.3%; Percent of patients with Upper abdominal pain ([2]; 8 weeks): 5.6%; Percent of patients with Upper respiratory tract infection ([2]; 8 weeks): 5.6%; Percent of patients with Vomiting ([2]; 8 weeks): 2.8%; Percent of patients having treatment emergent adverse effects: Death [2]: 0% |
| CCCCC1=NC2(CCCC2)C(=O)N1Cc1ccc(-c2ccccc2S(=O)(=O)Nc2noc(C)c2C)c(COCC)c1 [Sparsentan, 4′-((2-butyl-4-oxo-1,3-diazaspiro[4.4]non-1-en-3-yl)methyl)-N-(4,5-dimethylisoxazol-3-yl)-2′-(ethoxymethyl)-[1,1′-biphenyl]-2-sulfonamide] | no significant change or difference | no significant change or difference | no significant change or difference | no significant change or difference | 66% | 32% | 2% | 65% | 30% | 5% | 76.7% | 43.8% | 23.3% | 4.1% | 2.7% | 2.7% | 4.1% | 8.2% | 13.7% | 12.3% | Percent of patients with Fatigue ([2]; 8 weeks): 4.1%; Percent of patients with Headache ([2]; 8 weeks): 19.2%; Percent of patients with Hypotension/orthostatic hypotension ([2]; 8 weeks): 16.4%; Percent of patients with Muscle spasms ([2]; 8 weeks): 0%; Percent of patients with Nasal congestion ([2]; 8 weeks): 2.7%; Percent of patients with Nausea ([2]; 8 weeks): 12.3%; Percent of patients with Upper abdominal pain ([2]; 8 weeks): 5.5%; Percent of patients with Upper respiratory tract infection ([2]; 8 weeks): 2.7%; Percent of patients with Vomiting ([2]; 8 weeks): 8.2%; Percent of patients having treatment emergent adverse effects: Death [2]: 0% |
